Experimental data published in publication PMC7736581, “Activation of the IRE1 RNase through remodeling of the kinase front pocket by ATP-competitive ligands” (Nature Communications, 2020).

Legend:
Assay in all cases: biochemical
Parameters in all cases: Invitrogen kinase panel: Z'Lyte activity (ATP at Km) or LanthaScreen competitive ATP-site binding, percent inhibition
[1] = target: KDR (Homo sapiens, UniProt P35968)
[2] = target: SLK (Homo sapiens, UniProt Q9H2G2)
[3] = target: T1, MEK1 (Homo sapiens, UniProt Q02750)
T1 construct: gene MAP2K1
T1 sequence (Q02750 whole entry): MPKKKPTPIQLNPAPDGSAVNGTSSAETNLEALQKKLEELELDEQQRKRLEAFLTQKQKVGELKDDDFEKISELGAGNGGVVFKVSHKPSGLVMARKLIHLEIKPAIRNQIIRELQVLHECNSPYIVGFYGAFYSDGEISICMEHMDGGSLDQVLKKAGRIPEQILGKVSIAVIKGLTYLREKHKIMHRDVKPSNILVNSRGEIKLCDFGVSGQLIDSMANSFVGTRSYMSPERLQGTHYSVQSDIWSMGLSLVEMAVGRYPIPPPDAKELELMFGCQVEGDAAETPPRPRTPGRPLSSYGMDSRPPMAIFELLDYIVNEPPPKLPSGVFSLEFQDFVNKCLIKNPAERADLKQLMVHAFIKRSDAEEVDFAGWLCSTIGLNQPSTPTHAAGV

[4] = target: T2, ITK (Homo sapiens, UniProt Q08881)
T2 sequence (Q08881 1-620): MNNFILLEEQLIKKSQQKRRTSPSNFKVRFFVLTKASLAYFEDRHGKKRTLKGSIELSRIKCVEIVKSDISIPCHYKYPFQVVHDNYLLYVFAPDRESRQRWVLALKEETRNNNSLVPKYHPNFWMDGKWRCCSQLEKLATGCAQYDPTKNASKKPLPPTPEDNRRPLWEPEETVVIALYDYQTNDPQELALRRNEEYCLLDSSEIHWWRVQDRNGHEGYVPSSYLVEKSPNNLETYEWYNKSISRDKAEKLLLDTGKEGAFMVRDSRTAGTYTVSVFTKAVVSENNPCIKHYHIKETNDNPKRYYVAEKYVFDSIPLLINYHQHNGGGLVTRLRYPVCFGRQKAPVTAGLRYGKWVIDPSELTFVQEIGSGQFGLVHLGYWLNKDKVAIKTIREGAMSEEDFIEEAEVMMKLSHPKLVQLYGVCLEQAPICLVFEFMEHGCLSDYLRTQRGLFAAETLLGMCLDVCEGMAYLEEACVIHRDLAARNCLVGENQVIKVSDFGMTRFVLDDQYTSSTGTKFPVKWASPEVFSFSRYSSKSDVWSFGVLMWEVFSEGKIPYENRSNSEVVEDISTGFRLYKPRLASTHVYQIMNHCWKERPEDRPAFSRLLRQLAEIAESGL

[5] = target: T3, Brk (Homo sapiens, UniProt Q13882)
T3 construct: gene PTK6
T3 sequence (Q13882 whole entry): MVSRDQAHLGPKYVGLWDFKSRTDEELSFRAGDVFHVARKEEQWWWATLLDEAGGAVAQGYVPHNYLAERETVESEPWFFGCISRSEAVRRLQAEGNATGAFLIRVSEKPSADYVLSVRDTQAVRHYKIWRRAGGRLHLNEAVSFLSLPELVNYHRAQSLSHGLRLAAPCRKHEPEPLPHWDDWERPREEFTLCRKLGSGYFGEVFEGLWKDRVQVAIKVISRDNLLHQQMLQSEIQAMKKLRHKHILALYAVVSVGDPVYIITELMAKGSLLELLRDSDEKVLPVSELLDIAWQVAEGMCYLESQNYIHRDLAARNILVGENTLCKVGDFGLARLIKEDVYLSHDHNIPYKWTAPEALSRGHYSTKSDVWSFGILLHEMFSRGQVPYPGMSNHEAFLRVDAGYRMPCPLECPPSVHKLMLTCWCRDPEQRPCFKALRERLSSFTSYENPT

[6] = target: RAF1(Y340D,Y341D) (Homo sapiens, UniProt P04049, Y340D/Y341D)
Chain of RAF1(Y340D,Y341D) (P04049 whole entry Y340D/Y341D): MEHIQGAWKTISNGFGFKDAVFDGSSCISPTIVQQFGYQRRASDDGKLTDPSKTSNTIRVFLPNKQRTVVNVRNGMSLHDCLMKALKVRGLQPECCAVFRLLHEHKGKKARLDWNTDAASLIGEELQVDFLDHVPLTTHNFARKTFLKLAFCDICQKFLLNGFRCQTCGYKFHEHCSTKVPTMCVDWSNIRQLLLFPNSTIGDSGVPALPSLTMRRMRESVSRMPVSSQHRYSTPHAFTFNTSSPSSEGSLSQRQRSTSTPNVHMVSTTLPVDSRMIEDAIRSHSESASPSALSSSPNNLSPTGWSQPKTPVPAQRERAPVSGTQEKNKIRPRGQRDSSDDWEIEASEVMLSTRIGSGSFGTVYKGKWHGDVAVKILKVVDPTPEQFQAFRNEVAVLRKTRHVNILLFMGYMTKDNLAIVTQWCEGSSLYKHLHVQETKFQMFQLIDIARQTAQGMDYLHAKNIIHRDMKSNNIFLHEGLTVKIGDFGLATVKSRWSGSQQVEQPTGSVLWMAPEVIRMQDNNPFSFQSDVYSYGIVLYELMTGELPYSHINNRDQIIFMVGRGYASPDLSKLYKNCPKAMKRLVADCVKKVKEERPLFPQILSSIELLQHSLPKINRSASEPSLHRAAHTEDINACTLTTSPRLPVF

[7] = target: ROCK1 (Homo sapiens, UniProt Q13464)
Chain of ROCK1 (Q13464 whole entry): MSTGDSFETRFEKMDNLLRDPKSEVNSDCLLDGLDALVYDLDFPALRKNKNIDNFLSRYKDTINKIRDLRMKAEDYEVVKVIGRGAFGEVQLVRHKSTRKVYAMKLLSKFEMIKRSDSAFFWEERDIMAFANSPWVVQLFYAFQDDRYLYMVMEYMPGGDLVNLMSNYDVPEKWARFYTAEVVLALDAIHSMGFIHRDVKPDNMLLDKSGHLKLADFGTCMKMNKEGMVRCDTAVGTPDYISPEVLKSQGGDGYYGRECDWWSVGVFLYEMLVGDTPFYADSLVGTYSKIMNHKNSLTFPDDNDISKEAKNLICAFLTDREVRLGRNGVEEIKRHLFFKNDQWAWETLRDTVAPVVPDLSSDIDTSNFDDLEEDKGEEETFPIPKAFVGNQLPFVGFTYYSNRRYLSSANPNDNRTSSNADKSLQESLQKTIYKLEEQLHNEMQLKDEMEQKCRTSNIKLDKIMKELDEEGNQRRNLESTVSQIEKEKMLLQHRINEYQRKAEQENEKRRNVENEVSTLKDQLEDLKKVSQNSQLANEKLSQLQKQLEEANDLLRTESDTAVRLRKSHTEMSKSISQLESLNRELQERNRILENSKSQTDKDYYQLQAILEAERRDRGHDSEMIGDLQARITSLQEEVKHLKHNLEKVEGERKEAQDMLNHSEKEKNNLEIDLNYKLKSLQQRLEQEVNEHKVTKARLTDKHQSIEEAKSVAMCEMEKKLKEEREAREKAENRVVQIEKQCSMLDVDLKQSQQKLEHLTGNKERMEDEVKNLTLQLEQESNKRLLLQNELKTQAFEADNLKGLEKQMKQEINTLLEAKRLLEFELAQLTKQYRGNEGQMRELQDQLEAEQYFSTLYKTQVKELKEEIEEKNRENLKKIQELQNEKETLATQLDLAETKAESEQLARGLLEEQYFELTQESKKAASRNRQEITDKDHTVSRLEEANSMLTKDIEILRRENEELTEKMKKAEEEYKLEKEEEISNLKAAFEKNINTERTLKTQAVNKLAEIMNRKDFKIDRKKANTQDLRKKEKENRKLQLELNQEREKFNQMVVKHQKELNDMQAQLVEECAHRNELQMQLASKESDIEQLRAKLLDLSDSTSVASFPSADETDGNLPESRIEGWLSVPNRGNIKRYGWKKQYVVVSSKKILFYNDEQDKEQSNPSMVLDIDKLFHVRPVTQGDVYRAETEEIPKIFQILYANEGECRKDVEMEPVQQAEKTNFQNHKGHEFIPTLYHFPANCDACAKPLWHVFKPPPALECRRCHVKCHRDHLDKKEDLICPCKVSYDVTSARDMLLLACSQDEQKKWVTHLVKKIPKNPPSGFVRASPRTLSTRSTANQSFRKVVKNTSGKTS

[8] = target: PAK1 (Homo sapiens, UniProt Q13153)
Chain of PAK1 (Q13153 whole entry): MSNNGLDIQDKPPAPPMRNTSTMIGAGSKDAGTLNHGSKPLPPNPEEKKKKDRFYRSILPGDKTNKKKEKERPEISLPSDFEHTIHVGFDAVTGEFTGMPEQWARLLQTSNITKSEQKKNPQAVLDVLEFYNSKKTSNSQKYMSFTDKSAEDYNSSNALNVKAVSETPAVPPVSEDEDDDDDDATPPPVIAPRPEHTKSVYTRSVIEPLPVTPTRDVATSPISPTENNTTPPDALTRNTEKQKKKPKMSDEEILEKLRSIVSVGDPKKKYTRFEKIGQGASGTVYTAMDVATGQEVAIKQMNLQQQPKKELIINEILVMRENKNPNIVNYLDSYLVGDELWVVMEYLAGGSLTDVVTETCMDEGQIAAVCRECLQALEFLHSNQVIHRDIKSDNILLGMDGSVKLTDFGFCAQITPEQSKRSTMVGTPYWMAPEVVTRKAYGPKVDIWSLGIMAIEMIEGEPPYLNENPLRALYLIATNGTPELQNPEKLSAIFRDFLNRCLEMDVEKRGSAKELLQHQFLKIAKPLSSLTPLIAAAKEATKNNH

[9] = target: JAK1 (Homo sapiens, UniProt P23458)
[10] = target: T4, PKA (Homo sapiens, UniProt P17612)
T4 construct: gene PRKACA

[11] = target: T5, IRAK4 (Homo sapiens, UniProt Q9NWZ3)
T5 sequence (Q9NWZ3 1-460): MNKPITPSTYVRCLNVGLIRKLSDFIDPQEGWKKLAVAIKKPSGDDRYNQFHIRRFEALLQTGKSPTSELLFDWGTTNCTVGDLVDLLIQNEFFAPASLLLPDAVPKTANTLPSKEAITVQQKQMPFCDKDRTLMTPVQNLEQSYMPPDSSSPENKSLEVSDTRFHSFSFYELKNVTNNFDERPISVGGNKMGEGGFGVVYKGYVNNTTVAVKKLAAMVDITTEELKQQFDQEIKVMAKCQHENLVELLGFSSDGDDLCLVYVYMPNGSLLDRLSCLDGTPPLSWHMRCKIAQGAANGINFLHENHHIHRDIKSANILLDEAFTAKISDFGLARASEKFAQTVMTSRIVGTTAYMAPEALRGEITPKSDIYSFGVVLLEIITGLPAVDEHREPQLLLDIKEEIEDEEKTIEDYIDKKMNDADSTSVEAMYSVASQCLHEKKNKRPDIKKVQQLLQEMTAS

Chain of SLK (Q9H2G2 whole entry): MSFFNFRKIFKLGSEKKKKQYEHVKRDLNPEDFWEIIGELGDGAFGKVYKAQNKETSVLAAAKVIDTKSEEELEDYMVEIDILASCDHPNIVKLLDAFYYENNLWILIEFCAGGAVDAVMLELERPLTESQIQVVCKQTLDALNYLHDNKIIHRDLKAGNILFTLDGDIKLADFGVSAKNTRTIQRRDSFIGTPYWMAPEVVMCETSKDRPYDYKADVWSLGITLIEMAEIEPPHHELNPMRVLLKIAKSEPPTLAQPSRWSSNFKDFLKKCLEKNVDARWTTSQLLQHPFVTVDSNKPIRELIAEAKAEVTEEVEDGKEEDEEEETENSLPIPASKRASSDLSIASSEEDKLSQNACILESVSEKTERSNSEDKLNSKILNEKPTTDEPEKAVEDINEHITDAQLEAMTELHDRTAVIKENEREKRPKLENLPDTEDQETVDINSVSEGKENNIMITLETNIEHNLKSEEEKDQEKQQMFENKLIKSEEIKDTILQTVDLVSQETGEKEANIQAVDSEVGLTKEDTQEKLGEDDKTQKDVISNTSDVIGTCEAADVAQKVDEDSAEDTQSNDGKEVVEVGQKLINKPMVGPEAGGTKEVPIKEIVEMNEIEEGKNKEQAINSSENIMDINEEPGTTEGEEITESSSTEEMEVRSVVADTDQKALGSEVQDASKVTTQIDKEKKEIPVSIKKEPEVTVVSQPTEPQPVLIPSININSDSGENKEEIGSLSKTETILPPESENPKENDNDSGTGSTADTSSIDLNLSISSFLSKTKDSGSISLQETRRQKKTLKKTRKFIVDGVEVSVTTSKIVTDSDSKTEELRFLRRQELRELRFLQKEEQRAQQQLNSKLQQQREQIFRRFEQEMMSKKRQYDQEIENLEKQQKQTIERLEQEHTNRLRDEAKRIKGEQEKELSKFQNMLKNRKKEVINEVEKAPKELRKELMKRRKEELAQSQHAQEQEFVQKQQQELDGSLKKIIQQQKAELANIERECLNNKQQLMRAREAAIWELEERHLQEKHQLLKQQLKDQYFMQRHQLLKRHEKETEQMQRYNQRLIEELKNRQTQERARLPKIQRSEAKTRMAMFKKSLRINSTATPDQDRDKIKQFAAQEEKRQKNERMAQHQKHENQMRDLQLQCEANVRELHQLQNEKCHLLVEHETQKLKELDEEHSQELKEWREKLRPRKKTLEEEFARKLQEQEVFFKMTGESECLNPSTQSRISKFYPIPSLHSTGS

Structure (SMILES): CCOC(=O)Nc1cccc2c(Oc3ncccc3-c3ccnc(N[C@H]4CCCNC4)n3)c(C)ccc12 [G-1749]
- inhibition at 1 µM [1]: -18%
- inhibition at 1 µM [2]: 10%
- inhibition at 1 µM [3]: 2%
- inhibition at 1 µM [4]: 5%
- inhibition at 1 µM [5]: 1.8%
- inhibition at 1 µM [6]: 24.5%
- inhibition at 1 µM [7]: 3.5%
- inhibition at 1 µM [8]: 7%
- inhibition at 1 µM [9]: -4%
- inhibition at 1 µM [10]: -9%
- inhibition at 1 µM [11]: 8%

Structure (SMILES): CC#CC(=O)Nc1cccc2c(Oc3ncccc3-c3ccnc(N[C@H]4CCCNC4)n3)c(C)ccc12 [G-7658]
- inhibition at 1 µM [1]: -4%
- inhibition at 1 µM [2]: 1.5%
- inhibition at 1 µM [3]: 0.5%
- inhibition at 1 µM [4]: 0%
- inhibition at 1 µM [5]: -9%
- inhibition at 1 µM [6]: 1%
- inhibition at 1 µM [7]: 0.5%
- inhibition at 1 µM [8]: 5%
- inhibition at 1 µM [9]: 0.5%
- inhibition at 1 µM [10]: -8%
- inhibition at 1 µM [11]: -1%

Structure (SMILES): O=c1cc(-c2n[nH]c3ncc(-c4c(F)cccc4F)cc23)nc(N2CCC(O)CC2)[nH]1 [G-9807]
- inhibition at 1 µM [1]: 96.3%
- inhibition at 1 µM [2]: 96.9%
- inhibition at 1 µM [3]: 95.4%
- inhibition at 1 µM [4]: 81.3%
- inhibition at 1 µM [5]: 26.8%
- inhibition at 1 µM [6]: 43.3%
- inhibition at 1 µM [7]: 94.6%
- inhibition at 1 µM [8]: 85.7%
- inhibition at 1 µM [9]: 68.7%
- inhibition at 1 µM [10]: 43%
- inhibition at 1 µM [11]: 96.3%
